Patent publication US20250026725A1, “HYDRATE CRYSTAL OF 5-CHLORO-4-(3-CHLORO-4- METHYLPHENYL)-1H-IMIDAZOLE-2-CARBONITRILE” (ISHIHARA SANGYO KAISHA, LTD., priority 2021, published 2025)

Key:
[1] = Test of triboelectrification properties; type: physicochemical; conditions: for Decrease of potential retention rate: at 20 minutes later
Method: First, the sample was loaded into a levelled stainless steel petri dish having φ50 mm×a height of 15 mm, and then it was statically eliminated with a static eliminator (STABLO AP, manufactured by SHIMADZU CORPORATION). The surface potential of the sample was measured with a surface electrometer (SV-77A, manufactured by NIPPON STATIC CO., LTD.) that had previously been zero-point adjusted, to confirm that it was statically eliminated (within −1 to +1 kV). Next, the sample surface of the petri dish loaded with the sample was scraped back and forth 20 times with a stainless steel metal plate for 10 seconds to charge the sample surface. After that, the petri dish loaded with the charged sample was placed on a metal plate (30 cm×30 cm) connected with a ground wire. The surface potential of the sample was measured over time for 20 minutes with the above surface electrometer. The triboelectrification properties were evaluated from the initial surface potential. In addition, the retention rate was calculated from the surface potential after 20 minutes and the initial surface potential to evaluate charge attenuation properties. Note that the test was conducted in an electrostatic measurement chamber (Tabai ESPEC CORP.) set to 25° C. and 50% RH, and the surface potential measurement was conducted at a distance of 1 cm from the sample surface.

[2] = Karl Fischer moisture content measurement (volumetric titration method); type: physicochemical; conditions: atmosphere of 25° C., as obtained
Method: The moisture content rates of the hydrate crystals obtained in Production Examples 1 and 2, and the anhydrous crystals used as a raw material in Production Example 1 were measured with a Karl Fischer moisture meter (CA-310, manufactured by Nittoseiko Analytech Co., Ltd.). The test was conducted in conformance with the description in The Japanese Pharmacopoeia, 18th Edition, “2.48 Water Determination (Karl Fischer Method)”, Volumetric titration. The measurement was performed in an atmosphere of 25° C., with the conditions set to a forced delay time of 2 minutes after sample administration, a minimum amount to be titrated of 2 μL, and an end point voltage of 140 mV. More specifically, it was as follows. First, into a measuring flask, methanol for moisture measurement (Aquamicron Dehydrated Solvent GEX, manufactured by Mitsubishi Chemical Corporation) was loaded, and 30 mg of water was added thereto to titrate the mixture with a Karl Fischer reagent (Aquamicron SS-Z, manufactured by Mitsubishi Chemical Corporation). After titration, a titer (mg/mL) of the reagent was determined from the amount titrated. Next, about 0.1 g of a measurement sample was precisely weighed and added into the measuring flask to titrate the mixture with a Karl Fischer reagent. The moisture content (w/w %) in the sample was calculated from the amount titrated and the previously determined titer.

[3] = tested on: Trichophyton rubrum (ATCCMYA4607); test: Antifungal activity test, minimum inhibitory concentration (MIC100); type: cell-based; conditions: Table 21, same method as Test Example 12, read-out: Minimal fungicidal concentration (MFC100)
Method: Trichophyton rubrum was cultured on a Sabouraud medium at 32° C. for 168 hours to form spores. Mycelia were peeled from a medium surface and collected into a tube, physiological saline solution (OTSUKA NORMAL SALINE; containing the equivalent of 9 g of sodium chloride in 1000 mL) was added thereto, and the entire mixture was mixed and dispersed with a disposable loop (Type 1 (1 μL)) to collect a spore suspension containing mycelia. The spore suspension containing mycelia was filtered through a cell strainer (+40 μm). Spores were collected from a filtrate by centrifugation (3500 rpm, 5 minutes), and washed twice with physiological saline to prepare a spore suspension (1×10^6 cells/mL). 10 μL of the spore suspension was inoculated into the Sabouraud medium to which the test compound dissolved in DMSO was added so as to have a predetermined concentration. Trichophyton rubrum was cultured at 32° C. for 72 hours, and then the presence or absence of the development of colonies was examined to determine a minimum inhibitory concentration (MIC100).
A minimum inhibitory concentration (MIC100) for Trichophyton rubrum (ATCCMYA4607) was determined in the same method as in Test Example 12 except that the hydrate crystal (Production Example 2) was used as the compound under test.

Moisture absorption test = type: physicochemical; conditions: 60° C./80% RH, paper bag
Method: An anhydrous crystal sample was placed in a container (glass weighing bottle or paper bag) in such a manner that it was in direct contact with the damp. […] In addition, a sample for the hydrate crystal (Production Example 1) was also preserved at 60° C./80% RH, and the change in moisture content was observed through the change in weight or Karl Fischer moisture measurement.

Drying test = type: physicochemical; conditions: 25° C., dried (silica gel), weighing bottle
Method: The hydrate crystal of Production Example 1 was stored at 25° C. under a dried condition (in the presence of silica gel) for a period shown in Table 2. The Karl Fischer moisture content after storage was measured, and the change in moisture content was observed.

Compound: Cc1ccc(-c2nc(C#N)[nH]c2Cl)cc1Cl [Hydrate crystal (Production Example 2), 5-chloro-4-(3-chloro-4-methylphenyl)-1H-imidazole-2-carbonitrile]
- Electrification voltage ([1]; 0 minutes after charging; 25° C. and 50% RH; listed as Hydrate crystal Production Example 2)): −2.30 kv
- Electrification voltage ([1]; 20 minutes after charging; 25° C. and 50% RH; listed as Hydrate crystal Production Example 2)): −1.98 kv
- Decrease of potential retention rate ([1]; 25° C. and 50% RH, listed as hydrate crystal of Production Example 2): 14%
- Retention rate ([1]; surface potential after 20 minutes vs initial; 25° C. and 50% RH; listed as Hydrate crystal Production Example 2)): 86.1%
- Karl Fischer moisture content ([2]; listed as hydrate crystal of Production Example 2): 6.7 wt %
- MFC [3]: 5 mg/L

Compound: Cc1ccc(-c2nc(C#N)[nH]c2Cl)cc1Cl [Hydrate crystal (Production Example 1), 5-chloro-4-(3-chloro-4-methylphenyl)-1H-imidazole-2-carbonitrile]
- Moisture content (Moisture absorption test; 0 days): 0.1%
- Weight change (Moisture absorption test; 4 days): 6.4%
- Weight change (Moisture absorption test; 7 days): 6.4%
- Weight change (Moisture absorption test; 14 days): 6.5%
- Moisture content (Moisture absorption test; 20 days): 6.7%
- Weight change (Moisture absorption test; 20 days): 6.5%
- Weight change (Moisture absorption test; 29 days): 6.5%
- Weight change (Moisture absorption test; 40 days): 6.5%
- Moisture content (Moisture absorption test; 61 days): 6.6%
- Weight change (Moisture absorption test; 61 days): 6.5%
- Electrification voltage ([1]; 0 minutes after charging, 25° C. and 50% RH): −3.00 kv
- Electrification voltage ([1]; 20 minutes after charging, 25° C. and 50% RH): −2.79 kv
- Decrease of potential retention rate ([1]; 25° C. and 50% RH, listed as hydrate crystal of Production Example 1): 7%
- Retention rate ([1]; surface potential after 20 minutes vs initial, 25° C. and 50% RH): 93.0%
- Karl Fischer moisture content (Drying test; 0 days): 6.5%
- Karl Fischer moisture content (Drying test; 14 days): 6.7%
- Karl Fischer moisture content (Drying test; 29 days): 6.7%
- Karl Fischer moisture content (Drying test; 38 days): 6.7%
- Karl Fischer moisture content (Drying test; 53 days): 6.7%
- Karl Fischer moisture content ([2]; listed as hydrate crystal of Production Example 1): 6.6 wt %
